This note sets out measurements from ChEMBL document CHEMBL1140524, “Facile one-pot synthesis of thio and selenourea derivatives: a new class of potent urease inhibitors” (Bioorg Med Chem Lett, 2007).

Calls of active or inactive are those of the source. The rule behind the calls is not given here.

Usually Ki stands for the dissociation constant of the complex between target and ligand, obtained from inhibition or displacement.

Assay [1] has as its target Urease (Canavalia ensiformis, UniProt P07374). Put plainly: (§1) Inhibition of jack bean urease.
In assay [2] the target is Urease (Canavalia ensiformis) (UniProt P07374). The assay is described as §1.
Sequence of Urease (Canavalia ensiformis) (P07374 whole entry, looked up): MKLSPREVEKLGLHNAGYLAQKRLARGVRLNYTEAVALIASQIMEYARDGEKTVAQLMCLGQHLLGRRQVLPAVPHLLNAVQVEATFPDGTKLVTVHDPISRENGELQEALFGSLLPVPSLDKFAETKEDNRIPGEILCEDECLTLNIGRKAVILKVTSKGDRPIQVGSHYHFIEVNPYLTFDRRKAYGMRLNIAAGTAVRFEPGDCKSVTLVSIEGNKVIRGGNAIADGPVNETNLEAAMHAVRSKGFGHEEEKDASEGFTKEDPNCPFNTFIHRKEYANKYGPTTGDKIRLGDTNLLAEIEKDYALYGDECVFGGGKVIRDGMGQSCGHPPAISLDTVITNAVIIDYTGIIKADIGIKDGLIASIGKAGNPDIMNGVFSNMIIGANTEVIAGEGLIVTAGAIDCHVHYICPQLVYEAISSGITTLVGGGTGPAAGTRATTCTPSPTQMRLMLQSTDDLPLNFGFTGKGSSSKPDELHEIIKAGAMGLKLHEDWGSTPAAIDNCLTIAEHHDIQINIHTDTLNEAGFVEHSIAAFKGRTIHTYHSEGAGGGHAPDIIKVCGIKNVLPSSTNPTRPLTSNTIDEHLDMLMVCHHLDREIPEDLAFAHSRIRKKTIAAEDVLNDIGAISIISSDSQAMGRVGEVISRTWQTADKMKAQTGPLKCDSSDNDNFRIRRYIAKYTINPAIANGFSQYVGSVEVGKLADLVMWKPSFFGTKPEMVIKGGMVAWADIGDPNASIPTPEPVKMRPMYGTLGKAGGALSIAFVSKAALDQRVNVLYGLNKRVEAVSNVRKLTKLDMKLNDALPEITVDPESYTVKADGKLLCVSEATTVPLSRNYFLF

Sequence of Urease (P07374 whole entry): as the sequence (P07374 whole entry, looked up) above

For the molecule `CCCCCCCCCCCCNC(=S)N(C)C`, the Ki in assay [1] is 124 nM.

`CN(C)C(=[Se])NCc1ccc(Br)cc1` registered a Ki in assay [1] of 135 nM.

In turn, `CC(C)N(C(=[Se])N(C)C)C1CCCCC1` came in with an inhibition constant (Ki) in assay [1] of 25 nM.

For `CN(C)C(=[Se])N1CCOCC1`, the result in assay [2] was inactive.

In the case of `CN(C)C(=S)Nc1ccc(Br)cc1`, the affinity in assay [1], expressed as Ki, was 255 nM.

Consider `CN(C)C(=S)N1CCOCC1`, for which the outcome in assay [2] was inactive.

With `C[C@H](NC(=[Se])N(C)C)c1cccc2ccccc12`, in assay [1], affinity was put at a Ki of 94 nM.
